Measurements from patent publication US20220220106A1, “QUINOLINE COMPOUNDS AND PHARMACEUTICAL COMPOSITIONS AND USES THEREOF” (Academy of Military Medical Sciences, priority 2019, published 2022).

How the values were obtained:
mTOR kinase = target: T1, mTOR kinase (Homo sapiens, UniProt P42345); assay: In vitro inhibitory activity on mTOR kinase (TR-FRET, GFP-4E-BP1 substrate); format: biochemical; details: for IC50: 0.5 μg/mL mTOR, 0.4 μM GFP-4E-BP1, 3 μM ATP
T1 construct: purchased Thermo Fisher PV4753
Procedure, shortened: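 TR-FRET readout with 0.5 μg/mL mTOR, 0.4 μM GFP-4E-BP1 and 3 μM ATP in HEPES pH 7.5 buffer with 10 mM MnCl2 and 1% DMSO. Compound pre-incubated 15 min, reaction 60 min at room temperature, then stopped with EDTA and Tb-anti-p4E-BP1. IC50 fitted from 520/495 nm ratio.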

mTORC1 = target: T2, mTORC1 (Homo sapiens, UniProt P42345); assay: Western blot, phosphorylation of Thr389 of p70S6K1 in RD cells (mTORC1 inhibition); format: cell-based; details: 20 μM, 2 hours, Western blot (FIG. 1)
T2 construct: endogenous in cells; host or cells: RD cells
Procedure, shortened: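 Serum-starved RD cells treated 2 h at 37° C with 20 μM compound in medium with 167 nM insulin (final DMSO 0.2%). Lysates analysed by Western blot for p70S6K1 Thr389 phosphorylation (mTORC1) and Akt Ser473 phosphorylation (mTORC2).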

O=c1ccc2cnc3ccc(-c4ccc(N5CCOCC5)nc4)cc3c2n1-c1cccc(C(F)(F)F)c1 [HTL-7-18, 9-[3-(6-morpholin-4-yl)pyridyl]-2-oxo-1-[3-(trifluoromethyl)phenyl]-1,2-dihydrobenzo[h][1,6]naphthyridine]
IC50 (mTOR kinase): 22.7 nM
p70 phosphorylation expression level (mTORC1): significantly down-regulate

COc1cc(-c2ccc3ncc4ccc(=O)n(-c5cccc(C(F)(F)F)c5)c4c3c2)cnc1N [HTL-7-19, 9-[3-(6-amino-5-methoxy)pyridyl]-2-oxo-1-[3-(trifluoromethyl)phenyl]-1,2-dihydrobenzo[h][1,6]naphthyridine]
inhibitory activity on mTOR kinase, in words (mTOR kinase): excellent inhibitory activity
IC50 (mTOR kinase): 7.58 nM
p70 phosphorylation expression level (mTORC1): significantly down-regulate

O=c1ccc2cnc3ccc(-c4ccc(N5CCCC5)nc4)cc3c2n1-c1cccc(C(F)(F)F)c1 [HTL-7-20, 9-[3-(6-pyrrolidinyl)pyridyl]-2-oxo-1-[3-(trifluoromethyl)phenyl]-1,2-dihydrobenzo[h][1,6]naphthyridine]
IC50 (mTOR kinase): 11.3 nM
p70 phosphorylation expression level (mTORC1): significantly down-regulate

CC(C)(C)OC(=O)Nc1ccc(-c2ccc3ncc4ccc(=O)n(-c5cccc(C(F)(F)F)c5)c4c3c2)cn1 [HTL-7-21, 9-[3-(6-tert-butoxycarbonylamino)pyridyl]-2-oxo-1-[3-(trifluoromethyl)phenyl]-1,2-dihydrobenzo[h][1,6]naphthyridine]
IC50 (mTOR kinase): 11.9 nM
p70 phosphorylation expression level (mTORC1): significantly down-regulate
